The source of these data is ChEMBL document CHEMBL4422615, “Novel non-xanthine antagonist of the A2B adenosine receptor: From HTS hit to lead structure” (Eur J Med Chem, 2019).

Series [1] deals with T1, Adenosine receptor A2b (Homo sapiens, UniProt P29275).
T1 sequence (P29275 whole entry): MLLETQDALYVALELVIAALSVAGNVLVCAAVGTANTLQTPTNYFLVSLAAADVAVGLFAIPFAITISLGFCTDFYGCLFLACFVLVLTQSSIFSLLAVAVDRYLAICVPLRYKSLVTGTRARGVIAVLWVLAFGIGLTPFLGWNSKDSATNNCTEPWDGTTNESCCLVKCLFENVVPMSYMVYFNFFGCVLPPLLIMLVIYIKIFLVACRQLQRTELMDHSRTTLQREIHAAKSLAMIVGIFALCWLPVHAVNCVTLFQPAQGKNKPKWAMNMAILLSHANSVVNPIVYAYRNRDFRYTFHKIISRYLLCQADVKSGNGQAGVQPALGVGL
As to the kind of experiment: Displacement of [3H]DPCPX from human A2B adenosine receptor expressed in HEK293 cell membranes after 60 mins by radioligand displacement assay. Background: In a radioligand displacement assay an active substance lowers the binding of a labelled ligand.

The target in series [2] is T1, Adenosine receptor A2b. In words: Antagonist activity at recombinant human A2B adenosine receptor expressed in CHO cells after 3 to 4 hrs by luciferase reporter gene assay. Format: cell-based.
The nature of series [3]: Blood clearance in mouse by measuring intrinsic clearance in mouse liver microsomes by MS/MS analysis. The format is ADME. (In general: Liver microsomes are vesicles of endoplasmic reticulum, rich in cytochrome P450 enzymes.)
Series [4] in a line: Apparent permeability from apical side to basolateral side in human Caco2 cells. The format is ADME, cell-based. As to conditions: Caco-2; call rule not given here.
The target of another series is T2, Cytochrome P450 2C8 (Homo sapiens, UniProt P10632).
T2 sequence (P10632 whole entry): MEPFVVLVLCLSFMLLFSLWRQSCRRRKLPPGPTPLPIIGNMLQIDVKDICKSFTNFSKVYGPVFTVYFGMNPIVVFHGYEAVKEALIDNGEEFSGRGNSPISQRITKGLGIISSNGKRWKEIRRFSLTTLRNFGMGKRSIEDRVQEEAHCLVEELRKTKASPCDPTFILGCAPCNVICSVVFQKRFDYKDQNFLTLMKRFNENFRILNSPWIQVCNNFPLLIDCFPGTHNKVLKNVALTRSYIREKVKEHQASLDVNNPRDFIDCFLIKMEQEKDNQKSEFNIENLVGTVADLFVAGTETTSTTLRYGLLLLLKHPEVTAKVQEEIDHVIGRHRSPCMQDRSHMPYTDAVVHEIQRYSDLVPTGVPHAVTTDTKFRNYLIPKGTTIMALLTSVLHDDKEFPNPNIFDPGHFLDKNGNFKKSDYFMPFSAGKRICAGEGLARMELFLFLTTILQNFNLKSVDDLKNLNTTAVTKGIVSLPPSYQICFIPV
As to the kind of experiment: Inhibition of CYP2C8 in human liver microsomes using amodiaquine as substrate after 15 mins in presence of NADPH by LC-MS/MS analysis. Format: ADME.

Series [5] in a line: Efflux ratio in human Caco2 cells. Format: ADME, cell-based. The conditions noted are these: Caco-2. In general terms: Caco-2 cells form a polarised layer with tight junctions and transporters.
A short description of series [6]: Intrinsic clearance in rat hepatocytes by MS/MS analysis. Format: ADME, cell-based, Hepatocyte.
For a further series, the target named is T3, Cytochrome P450 1A2 (Homo sapiens, UniProt P05177).
T3 sequence (P05177 whole entry): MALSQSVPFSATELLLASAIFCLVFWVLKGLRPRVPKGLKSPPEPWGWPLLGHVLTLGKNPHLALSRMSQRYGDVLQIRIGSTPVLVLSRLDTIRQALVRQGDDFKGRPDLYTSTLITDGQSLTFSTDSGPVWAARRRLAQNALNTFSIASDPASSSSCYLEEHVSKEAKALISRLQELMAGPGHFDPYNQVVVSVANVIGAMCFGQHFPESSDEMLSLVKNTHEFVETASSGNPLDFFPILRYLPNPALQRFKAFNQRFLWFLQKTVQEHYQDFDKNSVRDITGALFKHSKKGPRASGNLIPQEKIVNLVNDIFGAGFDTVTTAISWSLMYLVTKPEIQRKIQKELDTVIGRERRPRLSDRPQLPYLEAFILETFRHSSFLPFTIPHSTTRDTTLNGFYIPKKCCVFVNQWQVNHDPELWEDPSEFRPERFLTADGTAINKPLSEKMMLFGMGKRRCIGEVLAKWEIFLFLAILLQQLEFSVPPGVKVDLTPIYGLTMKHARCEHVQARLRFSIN
As to the kind of experiment: Inhibition of CYP1A2 in human liver microsomes using phenacetin as substrate after 15 mins in presence of NADPH by LC-MS/MS analysis. The format is ADME.

Series [7] addresses T4, Cytochrome P450 3A4 (Homo sapiens, UniProt P08684). In words: Inhibition of CYP3A4 in human liver microsomes using midazolam as substrate preincubated for 30 mins followed by substrate addition measured after 10 mins in presence of NADPH by LC-MS/MS analysis. Format: ADME.
Series [8] is described as follows: Plasma clearance in mouse. The format is ADME, organism-based.
Series [9] addresses T5, Nuclear receptor subfamily 1 group I member 2 (Homo sapiens, UniProt O75469).
T5 sequence (O75469 whole entry): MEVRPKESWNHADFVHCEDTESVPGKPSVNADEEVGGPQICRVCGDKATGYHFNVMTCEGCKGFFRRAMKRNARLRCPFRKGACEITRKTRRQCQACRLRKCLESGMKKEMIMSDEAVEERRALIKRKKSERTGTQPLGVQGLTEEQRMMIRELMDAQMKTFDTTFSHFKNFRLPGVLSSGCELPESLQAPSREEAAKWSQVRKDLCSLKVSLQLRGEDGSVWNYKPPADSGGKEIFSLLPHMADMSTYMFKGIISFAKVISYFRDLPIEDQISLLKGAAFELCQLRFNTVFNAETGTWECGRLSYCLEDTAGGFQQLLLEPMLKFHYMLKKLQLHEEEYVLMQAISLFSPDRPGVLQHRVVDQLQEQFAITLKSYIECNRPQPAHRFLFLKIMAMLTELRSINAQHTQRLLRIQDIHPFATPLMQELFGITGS
As to the kind of experiment: Activation of PXR in human HepG2 cells assessed as induction of CYP3A4 expression by luciferase reporter gene assay. The format is ADME, cell-based.

Another series concerns the target T6, PXR (Homo sapiens, UniProt O75469).
T6 sequence (O75469 whole entry): T5 sequence (O75469 whole entry)
In words: Activation of PXR in human HepG2 cells assessed as induction of CYP3A4 expression at 2 x 10^-9 to 50 x 10^-6 mol/L by luciferase reporter gene assay relative to control. The format is ADME, cell-based.

The nature of series [10]: Blood clearance in rat by measuring Intrinsic clearance in rat hepatocytes by MS/MS analysis. Format: ADME, cell-based.
A further series addresses Cytochrome P450 2C9 (Homo sapiens, UniProt P11712). In words: Inhibition of CYP2C9 in human liver microsomes using diclofenac as substrate after 15 mins in presence of NADPH by LC-MS/MS analysis. Format: ADME.
Series [11] has as its target T4, Cytochrome P450 3A4. As to the kind of experiment: Time dependent inhibition of human liver microsomes CYP3A4 using midazolam as substrate in presence of NADPH by LC-MS/MS analysis. Format: ADME.
The target of the next series is Cytochrome P450 2D6 (Homo sapiens, UniProt P10635). In words: Inhibition of CYP2D6 in human liver microsomes using dextromethorphan as substrate after 15 mins in presence of NADPH by LC-MS/MS analysis. The format is ADME.

As a reminder, the IC50 is the midpoint of a concentration-inhibition curve. What is called EC50 is the concentration needed to bring the measured effect to its halfway point. Broadly, the Papp A→B is how fast a substance crosses the layer from the apical side. As a reminder, the efflux ratio is the permeability from basolateral to apical divided by that in the opposite direction, in the common usage. Usually clearance stands for the rate of elimination divided by the concentration. A higher clearance goes with a high capacity for elimination. Usually Emax stands for the greatest response seen or fitted, relative to the assay's reference.

T4 sequence (P08684 whole entry): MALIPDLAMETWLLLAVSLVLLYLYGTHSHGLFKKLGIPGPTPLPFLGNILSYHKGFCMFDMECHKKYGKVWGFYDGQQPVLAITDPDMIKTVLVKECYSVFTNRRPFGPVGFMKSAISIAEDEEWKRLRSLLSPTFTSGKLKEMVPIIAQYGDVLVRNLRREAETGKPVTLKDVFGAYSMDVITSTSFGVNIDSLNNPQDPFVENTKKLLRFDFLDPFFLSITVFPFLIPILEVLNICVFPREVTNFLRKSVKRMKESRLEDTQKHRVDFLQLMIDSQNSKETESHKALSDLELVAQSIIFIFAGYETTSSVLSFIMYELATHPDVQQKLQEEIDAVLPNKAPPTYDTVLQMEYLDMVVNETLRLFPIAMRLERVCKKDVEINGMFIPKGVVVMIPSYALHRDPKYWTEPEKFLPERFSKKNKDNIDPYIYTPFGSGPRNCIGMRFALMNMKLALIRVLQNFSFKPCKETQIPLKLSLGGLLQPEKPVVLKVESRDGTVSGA
Cytochrome P450 2D6, sequence (P10635 whole entry): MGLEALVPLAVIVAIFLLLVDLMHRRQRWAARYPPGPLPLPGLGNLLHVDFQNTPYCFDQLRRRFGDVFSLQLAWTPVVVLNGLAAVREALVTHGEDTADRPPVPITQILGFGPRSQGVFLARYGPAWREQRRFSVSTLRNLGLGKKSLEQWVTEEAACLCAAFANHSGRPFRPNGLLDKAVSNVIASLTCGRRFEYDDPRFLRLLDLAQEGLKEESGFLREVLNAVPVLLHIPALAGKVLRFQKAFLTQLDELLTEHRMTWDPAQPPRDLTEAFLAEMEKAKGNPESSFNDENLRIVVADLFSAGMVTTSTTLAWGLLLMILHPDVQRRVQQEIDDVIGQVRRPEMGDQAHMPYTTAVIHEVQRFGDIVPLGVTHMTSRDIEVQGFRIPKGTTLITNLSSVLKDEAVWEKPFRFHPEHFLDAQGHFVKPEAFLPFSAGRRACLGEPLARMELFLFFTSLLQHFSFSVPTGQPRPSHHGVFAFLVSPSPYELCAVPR
Cytochrome P450 2C9, sequence (P11712 whole entry): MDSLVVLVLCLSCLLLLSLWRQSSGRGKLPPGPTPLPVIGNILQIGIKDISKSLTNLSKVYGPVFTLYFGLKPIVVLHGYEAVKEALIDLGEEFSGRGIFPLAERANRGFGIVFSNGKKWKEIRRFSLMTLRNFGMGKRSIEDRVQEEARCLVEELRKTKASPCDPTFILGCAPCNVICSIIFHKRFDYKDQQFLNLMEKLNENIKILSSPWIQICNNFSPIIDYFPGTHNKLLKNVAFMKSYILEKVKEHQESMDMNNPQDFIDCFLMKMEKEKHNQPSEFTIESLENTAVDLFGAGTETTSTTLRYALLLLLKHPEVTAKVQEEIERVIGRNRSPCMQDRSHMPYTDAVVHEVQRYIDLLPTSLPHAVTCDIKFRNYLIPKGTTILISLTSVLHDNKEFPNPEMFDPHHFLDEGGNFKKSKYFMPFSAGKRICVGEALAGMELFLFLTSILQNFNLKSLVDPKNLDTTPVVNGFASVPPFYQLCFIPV

Regarding `Cc1csc2c1c(=O)n(CCc1ccccc1)c(=O)n2CC1CCCO1` (racemic), at Adenosine receptor A2b [1], the concentration for half-maximal inhibition (IC50) was 0.52 µM. Further, at Adenosine receptor A2b [2], the EC50 is greater than 10 µM.

Turning to `Cc1csc2c1c(=O)n(CCc1ccccc1)c(=O)n2CC1CCCO1` (stereo in doubt; 7), the results for the CLhep predicted in series [3], in series [6] and in [10] were 81.7 mL/min/kg, 66.7 mL/min/kg and 66.7 mL/min/kg, respectively. The IC50 on Adenosine receptor A2b [1] was 0.18 µM; on Cytochrome P450 2C8, 10 µM; at Cytochrome P450 1A2, 6.5 µM; on Cytochrome P450 3A4 [7], 16 µM; on Cytochrome P450 2C9, 8.3 µM; at Cytochrome P450 2D6, greater than 20 µM. Moreover, in series [4], the Papp A→B came out at 21 ×10⁻⁶ cm/s. The efflux ratio in series [5] was determined as 0.69. Besides, in series [8], the clearance was 43.3 mL/min/kg. Besides, the MEC in series [9] is recorded as 2 ×10⁻⁶ mol/L. The Emax on PXR is 85%. In addition, the TDI entry at Cytochrome P450 3A4 [11] is given as “Not Active”.
